What all share (details): ATP=10 uM, sample concentration=100 nM
Assay [1] deals with T1, PI3 Kinase (p110δ/p85α) (h) (Homo sapiens, UniProt O00329).
T1 construct: endogenous in cells; host or cells: Raji
In words: Inhibition of phosphatidylinositol 3-kinase delta (PI3K δ), pAkt Western blotting in IgM-stimulated Raji cells. It is filed as cell-based. In short, it runs like this: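 Raji cells were treated with compound for 1.5 h, then stimulated with 0.25 μg/mL IgM for 30 min to activate PI3Kδ. Lysates were Western blotted for pAkt (Ser473 or Thr308) with ECL detection. Conditions stated: ATP=10 uM, sample concentration=100 nM.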
Background: Immunoblotting shows a protein as a band on a membrane.

The target of assay [2] is T2, PI3 Kinase (p110β/p86α) (h) (Homo sapiens, UniProt P42338).
T2 construct: endogenous in cells; host or cells: PC3
Description: Inhibition of phosphatidylinositol 3-kinase beta (PI3K β), pAkt Western blotting in LPA-stimulated PC3 cells. The class given is cell-based.

In assay [3] the target is T3, PI3 Kinase (p120γ) (h) (Homo sapiens, UniProt P48736).
T3 construct: endogenous in cells; host or cells: RAW264.7
T3 sequence (P48736 whole entry): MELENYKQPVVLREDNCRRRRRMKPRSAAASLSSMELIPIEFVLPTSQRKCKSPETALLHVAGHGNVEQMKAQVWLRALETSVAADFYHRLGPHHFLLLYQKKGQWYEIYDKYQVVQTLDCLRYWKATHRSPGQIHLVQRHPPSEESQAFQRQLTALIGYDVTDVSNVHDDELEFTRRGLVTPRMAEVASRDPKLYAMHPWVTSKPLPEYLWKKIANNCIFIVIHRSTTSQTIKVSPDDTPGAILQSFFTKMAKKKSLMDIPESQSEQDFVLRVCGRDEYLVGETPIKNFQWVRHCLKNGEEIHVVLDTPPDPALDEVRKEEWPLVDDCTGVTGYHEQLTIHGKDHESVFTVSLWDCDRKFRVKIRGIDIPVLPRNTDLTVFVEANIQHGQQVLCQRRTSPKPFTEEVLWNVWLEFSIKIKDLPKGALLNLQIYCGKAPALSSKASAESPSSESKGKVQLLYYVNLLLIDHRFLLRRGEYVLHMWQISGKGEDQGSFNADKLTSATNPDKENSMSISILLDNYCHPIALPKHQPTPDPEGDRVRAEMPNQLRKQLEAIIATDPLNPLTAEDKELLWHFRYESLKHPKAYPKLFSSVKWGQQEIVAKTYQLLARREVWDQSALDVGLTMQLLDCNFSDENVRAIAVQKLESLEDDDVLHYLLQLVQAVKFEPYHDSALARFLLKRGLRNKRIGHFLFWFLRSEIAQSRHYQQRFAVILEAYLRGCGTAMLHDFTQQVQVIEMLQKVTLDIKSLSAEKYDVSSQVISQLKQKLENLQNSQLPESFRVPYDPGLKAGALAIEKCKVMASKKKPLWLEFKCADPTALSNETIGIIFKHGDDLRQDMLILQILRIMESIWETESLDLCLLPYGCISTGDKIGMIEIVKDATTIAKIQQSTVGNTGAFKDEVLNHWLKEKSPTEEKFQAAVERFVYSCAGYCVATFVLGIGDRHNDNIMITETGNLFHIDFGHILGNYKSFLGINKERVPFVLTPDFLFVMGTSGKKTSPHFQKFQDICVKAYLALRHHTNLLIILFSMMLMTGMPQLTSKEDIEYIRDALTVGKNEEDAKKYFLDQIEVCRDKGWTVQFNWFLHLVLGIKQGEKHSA
In words: Inhibition of phosphatidylinositol 3-kinase gamma (PI3K γ), pAkt Western blotting in C5a-stimulated RAW264.7 macrophages. It is filed as cell-based, mouse. The procedure, abridged: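 Enzyme: PI3Kγ activity measured at ATP=10 uM with compound at 100 nM. Cellular: RAW264.7 macrophages treated with compound 1.5 h, then stimulated with 10 ng/mL C5a for 5 min; lysates (10 μg protein) probed by Western blot for pAkt (Ser473 or Thr308), ECL detection.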

For assay [4], the target named is T4, PI3 Kinase (p110α/p85α) (h) (Homo sapiens, UniProt P42336).
T4 construct: endogenous in cells; host or cells: MDA-MB-453
T4 sequence (P42336 whole entry): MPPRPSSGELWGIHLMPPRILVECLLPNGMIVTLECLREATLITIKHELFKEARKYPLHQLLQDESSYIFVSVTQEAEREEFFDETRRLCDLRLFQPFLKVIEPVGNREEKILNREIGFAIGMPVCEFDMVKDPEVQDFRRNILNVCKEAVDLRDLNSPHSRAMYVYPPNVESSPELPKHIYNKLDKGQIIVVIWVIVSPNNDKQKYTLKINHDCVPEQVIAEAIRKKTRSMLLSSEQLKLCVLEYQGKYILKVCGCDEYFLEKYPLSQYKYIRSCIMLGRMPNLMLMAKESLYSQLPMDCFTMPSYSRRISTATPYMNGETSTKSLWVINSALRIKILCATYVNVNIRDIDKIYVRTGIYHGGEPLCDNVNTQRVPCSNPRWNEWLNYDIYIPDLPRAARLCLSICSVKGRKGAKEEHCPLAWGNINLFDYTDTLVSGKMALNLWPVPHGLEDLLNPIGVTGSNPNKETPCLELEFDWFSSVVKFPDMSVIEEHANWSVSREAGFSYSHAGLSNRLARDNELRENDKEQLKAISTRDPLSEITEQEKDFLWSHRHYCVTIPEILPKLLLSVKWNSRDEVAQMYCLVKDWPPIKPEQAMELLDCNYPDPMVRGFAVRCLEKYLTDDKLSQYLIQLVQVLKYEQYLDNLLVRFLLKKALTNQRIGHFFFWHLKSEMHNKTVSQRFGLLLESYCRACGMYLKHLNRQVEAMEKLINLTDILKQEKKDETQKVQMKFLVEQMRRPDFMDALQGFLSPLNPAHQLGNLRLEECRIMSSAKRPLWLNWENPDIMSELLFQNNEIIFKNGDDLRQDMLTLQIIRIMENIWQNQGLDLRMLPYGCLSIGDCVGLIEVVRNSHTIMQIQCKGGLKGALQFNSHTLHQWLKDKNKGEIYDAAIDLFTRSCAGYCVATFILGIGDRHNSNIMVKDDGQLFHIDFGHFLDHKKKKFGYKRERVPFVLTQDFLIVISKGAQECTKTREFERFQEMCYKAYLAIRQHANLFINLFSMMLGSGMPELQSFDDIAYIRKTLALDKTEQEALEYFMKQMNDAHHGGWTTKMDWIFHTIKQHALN
T4 sequence (P27986 2-724 partner limits assumed): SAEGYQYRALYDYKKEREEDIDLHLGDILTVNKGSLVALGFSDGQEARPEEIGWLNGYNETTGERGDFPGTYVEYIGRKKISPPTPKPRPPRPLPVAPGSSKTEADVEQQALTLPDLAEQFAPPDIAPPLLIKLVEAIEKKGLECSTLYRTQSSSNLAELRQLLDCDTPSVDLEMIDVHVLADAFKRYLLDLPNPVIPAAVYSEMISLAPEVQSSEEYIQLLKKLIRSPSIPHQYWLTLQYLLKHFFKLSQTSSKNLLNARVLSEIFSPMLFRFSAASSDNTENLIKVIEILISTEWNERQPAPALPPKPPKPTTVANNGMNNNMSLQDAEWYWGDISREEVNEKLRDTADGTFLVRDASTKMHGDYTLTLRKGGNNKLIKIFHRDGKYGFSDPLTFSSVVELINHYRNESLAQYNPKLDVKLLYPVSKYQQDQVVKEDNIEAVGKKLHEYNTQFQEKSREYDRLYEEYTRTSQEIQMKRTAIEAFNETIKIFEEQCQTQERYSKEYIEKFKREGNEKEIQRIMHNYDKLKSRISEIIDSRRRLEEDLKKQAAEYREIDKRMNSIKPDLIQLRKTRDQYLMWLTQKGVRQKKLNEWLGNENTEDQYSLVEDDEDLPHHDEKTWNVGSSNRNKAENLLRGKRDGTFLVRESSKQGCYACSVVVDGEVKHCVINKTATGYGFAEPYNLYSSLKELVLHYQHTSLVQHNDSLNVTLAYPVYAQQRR
In words: Inhibition of phosphatidylinositol 3-kinase alpha (PI3K α), pAkt Western blotting in EGF-stimulated MDA-MB-453 cells. The class given is cell-based.

pIC50: −log10 of the molar value. A value given as a limit tells only on which side of the number the result lay.

T1 sequence (O00329 whole entry): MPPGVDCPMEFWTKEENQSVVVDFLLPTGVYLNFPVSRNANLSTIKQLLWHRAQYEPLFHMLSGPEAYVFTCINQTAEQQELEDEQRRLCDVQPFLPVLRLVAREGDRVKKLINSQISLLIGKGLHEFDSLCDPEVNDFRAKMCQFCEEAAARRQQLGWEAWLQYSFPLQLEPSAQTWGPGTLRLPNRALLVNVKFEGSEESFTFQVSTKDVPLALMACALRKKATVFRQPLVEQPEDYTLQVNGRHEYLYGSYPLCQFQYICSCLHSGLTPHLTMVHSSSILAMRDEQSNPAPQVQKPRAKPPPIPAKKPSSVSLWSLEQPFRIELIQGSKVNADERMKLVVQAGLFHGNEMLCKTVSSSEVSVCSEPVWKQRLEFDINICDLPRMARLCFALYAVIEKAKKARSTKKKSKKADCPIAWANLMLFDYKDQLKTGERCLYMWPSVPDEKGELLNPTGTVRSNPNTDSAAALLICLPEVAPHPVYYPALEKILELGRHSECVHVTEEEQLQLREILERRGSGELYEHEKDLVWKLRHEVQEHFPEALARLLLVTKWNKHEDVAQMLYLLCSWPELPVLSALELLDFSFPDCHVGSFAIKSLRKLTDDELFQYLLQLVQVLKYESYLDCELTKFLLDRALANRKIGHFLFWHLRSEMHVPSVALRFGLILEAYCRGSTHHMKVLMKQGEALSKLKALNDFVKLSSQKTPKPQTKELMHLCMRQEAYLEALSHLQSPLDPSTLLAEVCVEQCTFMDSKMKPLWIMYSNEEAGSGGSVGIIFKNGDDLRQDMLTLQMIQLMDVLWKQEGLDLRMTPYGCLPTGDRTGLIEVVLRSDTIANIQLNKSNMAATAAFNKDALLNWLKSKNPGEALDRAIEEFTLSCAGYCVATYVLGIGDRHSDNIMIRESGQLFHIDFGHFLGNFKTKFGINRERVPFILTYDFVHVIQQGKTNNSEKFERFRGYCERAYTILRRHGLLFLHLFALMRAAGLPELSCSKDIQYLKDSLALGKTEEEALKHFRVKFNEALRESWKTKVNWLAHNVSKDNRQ
T1 sequence (P27986 whole entry partner): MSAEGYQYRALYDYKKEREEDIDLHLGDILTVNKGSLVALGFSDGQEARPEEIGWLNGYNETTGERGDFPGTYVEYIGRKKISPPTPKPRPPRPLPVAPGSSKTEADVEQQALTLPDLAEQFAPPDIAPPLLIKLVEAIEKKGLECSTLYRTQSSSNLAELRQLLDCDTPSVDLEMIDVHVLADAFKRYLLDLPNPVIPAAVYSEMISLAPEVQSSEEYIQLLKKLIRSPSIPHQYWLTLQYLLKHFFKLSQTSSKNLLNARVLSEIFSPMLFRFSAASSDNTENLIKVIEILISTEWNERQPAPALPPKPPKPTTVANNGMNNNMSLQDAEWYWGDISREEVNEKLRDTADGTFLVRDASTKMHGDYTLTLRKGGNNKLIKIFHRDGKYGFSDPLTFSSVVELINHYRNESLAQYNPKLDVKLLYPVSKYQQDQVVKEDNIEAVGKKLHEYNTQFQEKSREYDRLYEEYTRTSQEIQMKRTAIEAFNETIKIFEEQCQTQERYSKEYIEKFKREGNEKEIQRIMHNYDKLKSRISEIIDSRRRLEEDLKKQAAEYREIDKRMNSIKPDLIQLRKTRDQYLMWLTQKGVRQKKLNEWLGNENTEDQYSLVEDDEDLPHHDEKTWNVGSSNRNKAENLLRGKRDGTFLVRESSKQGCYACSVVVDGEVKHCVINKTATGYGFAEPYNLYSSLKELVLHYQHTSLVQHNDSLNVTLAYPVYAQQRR

Broadly, the pIC50 is the negative decadic logarithm of the IC50, by convention in mol/L. A higher pIC50 goes with a low IC50. As for `C[C@H](Nc1ncnc2c1C(=O)N(C1CCCC1)CN2)c1cc2cccc(Cl)c2c(=O)n1-c1ccccc1` [Example 63, (S)-5-(1-(8-chloro-1-oxo-2-phenyl-1,2-dihydroisoquinoline-3-yl)ethylamino)-3-cyclopentyl-2,3-dihydropyrimido[4,5-d]pyrimidine-4(1H)-one], the pIC50 in assay [1], in assay [2], in assay [3] and in assay [4] was below 6.30 in each case.
`O=c1nc[nH]c2ncnc(N3CCC[C@H]3c3nn4ccc(Cl)c4c(=O)n3-c3ccccc3)c12` [Example 79, (S)-5-(2-(5-chloro-4-oxo-3-phenyl-3,4-dihydropyrrolo[2,1-f][1,2,4]triazine-2-yl)pyrrolidine-1-yl)pyrimido[4,5-d]pyrimidine-4(1H)-one]: the pIC50 in assay [1], in assay [2], in assay [3] and in assay [4] was below 6.30 each time.
For `C[C@H](Nc1nc(N)nc2[nH]cnc(=O)c12)c1cc2cccc(Cl)c2c(=O)n1-c1ccccc1` [Example 85, (S)-7-amino-5-(1-(8-chloro-1-oxo-2-phenyl-1,2-dihydroisoquinoline-3-yl)ethylamino)pyrimido[4,5-d]pyrimidine-4(1H)-one], the negative-log IC50 (pIC50) is 6.30 to 8.00 in assay [1], below 6.30 in assay [2], 6.30 to 8.00 in assay [3] and below 6.30 in assay [4].
In the case of `C[C@H](Nc1nc(N)nc2[nH]cnc(=O)c12)c1cc2ccccc2nc1-c1ccccc1` [Example 88, (S)-7-amino-5-((1-(2-phenylquinoline-3-yl)ethyl)amino)pyrimido[4,5-d]pyrimidine-4(1H)-one], the pIC50 in assay [1], in assay [2], in assay [3] and in assay [4] was 6.30 to 8.00 each time.
Take `Nc1nc(N2CCC[C@H]2c2nn3ccc(Cl)c3c(=O)n2-c2ccccc2)c2c(=O)nc[nH]c2n1` [Example 95, (S)-7-amino-5-(2-(5-chloro-4-oxo-3-phenyl-3,4-dihydropyrrolo[2,1-f][1,2,4]triazine-2-yl)pyrrolidine-1-yl)pyrimido[4,5-d]pyrimidine-4(1H)-one]: the pIC50 in assay [1] is 6.30 to 8.00; in assay [2], below 6.30; in assay [3], 6.30 to 8.00; in assay [4], below 6.30.
For the compound `C[C@H](Nc1ncnc2c1C(=O)CCN2)c1c(Cl)c2cccc(Cl)c2c(=O)n1-c1ccccc1` [Example 98, (S)-4-((1-(4,8-dichloro-1-oxo-2-phenyl-1,2-dihydroisoquinoline-3-yl)ethyl)amino)-7,8-dihydropyrido[2,3-d]pyrimidine-5(6H)-one], the pIC50 in assay [1] is above 8.00; in assay [2] it was 6.30 to 8.00; in assay [3] it was 6.30 to 8.00; in assay [4] it was below 6.30.

Values taken from patent US10526337B2, “Heteroaryl derivative or pharmaceutically acceptable salt thereof, preparation method therefor, and pharmaceutical composition for preventing or treating diseases associated with PI3 kinases, containing same as active ingredient” (KOREA RESEARCH INSTITUTE OF CHEMICAL TECHNOLOGY, priority 2015, dated 2020).
